Structures are written as SMILES. pIC50: −log10 of the molar value. Read-outs that look alike come from different tables or passages of the source.

One assay has as its target B-Raf (Homo sapiens, UniProt P15056). Description: Luciferase-coupled chemiluminescence kinase assay (ATP consumption), B-Raf. The assay is classed as biochemical. In outline:
(§1)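 Pre-incub. kinase […] + cpd, 30 min RT (20 mM Tris pH 7.5, 10 mM MgCl2, 0.03% TX-100, 1 mM DTT). Start w/ ATP, 3 h ambient. Luciferase-luciferin mix added and luminescence read. Total ATP use 25-60%. IC50 derived.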

For a further assay, the target named is c-Raf (Homo sapiens, UniProt P04049). Description: Luciferase-coupled chemiluminescence kinase assay (ATP consumption), c-Raf. The format is biochemical. In short, it runs like this:
as §1

The mark [1] stands for this setting: read-out: bRaf (inhibition indicated as IC50).
[2] abbreviates: read-out: cRaf-1 (inhibition indicated as IC50).

Chain of c-Raf (P04049 whole entry): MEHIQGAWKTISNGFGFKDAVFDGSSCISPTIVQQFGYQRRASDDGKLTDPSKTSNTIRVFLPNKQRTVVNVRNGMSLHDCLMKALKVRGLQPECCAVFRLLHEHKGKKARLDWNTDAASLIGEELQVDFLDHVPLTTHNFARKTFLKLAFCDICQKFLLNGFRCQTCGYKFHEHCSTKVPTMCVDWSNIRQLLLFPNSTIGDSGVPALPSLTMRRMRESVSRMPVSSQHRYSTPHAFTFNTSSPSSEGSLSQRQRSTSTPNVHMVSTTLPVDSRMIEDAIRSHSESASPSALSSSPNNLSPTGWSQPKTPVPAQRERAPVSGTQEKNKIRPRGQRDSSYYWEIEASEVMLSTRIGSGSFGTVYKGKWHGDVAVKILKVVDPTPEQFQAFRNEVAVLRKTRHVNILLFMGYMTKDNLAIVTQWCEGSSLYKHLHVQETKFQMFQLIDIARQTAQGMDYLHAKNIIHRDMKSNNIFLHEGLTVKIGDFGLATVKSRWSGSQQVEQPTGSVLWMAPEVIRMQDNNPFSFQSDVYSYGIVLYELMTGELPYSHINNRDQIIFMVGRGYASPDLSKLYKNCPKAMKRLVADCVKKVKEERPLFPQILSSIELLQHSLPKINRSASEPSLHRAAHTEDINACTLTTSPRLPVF
Chain of B-Raf (P15056 whole entry): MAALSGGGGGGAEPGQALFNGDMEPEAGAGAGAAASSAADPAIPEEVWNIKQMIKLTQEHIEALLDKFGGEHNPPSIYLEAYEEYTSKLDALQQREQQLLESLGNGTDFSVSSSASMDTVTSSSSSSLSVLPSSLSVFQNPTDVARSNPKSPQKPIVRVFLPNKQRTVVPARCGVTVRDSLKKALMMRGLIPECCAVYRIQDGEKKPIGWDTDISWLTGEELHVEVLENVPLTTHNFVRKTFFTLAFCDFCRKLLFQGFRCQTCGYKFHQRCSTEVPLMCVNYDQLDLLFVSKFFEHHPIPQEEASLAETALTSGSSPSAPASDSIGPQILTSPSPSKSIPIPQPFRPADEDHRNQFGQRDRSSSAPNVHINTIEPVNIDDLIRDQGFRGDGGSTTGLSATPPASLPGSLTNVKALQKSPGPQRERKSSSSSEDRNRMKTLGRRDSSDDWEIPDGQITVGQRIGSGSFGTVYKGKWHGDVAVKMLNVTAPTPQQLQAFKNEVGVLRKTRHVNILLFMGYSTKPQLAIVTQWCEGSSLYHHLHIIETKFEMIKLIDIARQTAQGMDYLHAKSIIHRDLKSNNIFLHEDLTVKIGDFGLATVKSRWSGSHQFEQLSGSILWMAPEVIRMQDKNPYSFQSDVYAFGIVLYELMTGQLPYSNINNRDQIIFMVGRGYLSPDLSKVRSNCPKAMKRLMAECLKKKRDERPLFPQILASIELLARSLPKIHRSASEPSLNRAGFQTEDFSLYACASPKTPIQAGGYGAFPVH

Turning to `COC(=O)Nc1nc2cc(C3(O)c4ccccc4C(=O)N3Cc3ccc(C)cc3)ccc2[nH]1` (stereo not drawn) [Entry 132, methyl (5-{1-hydroxy-2-[(4-methylphenyl)methyl]-3-oxo-2,3-dihydro-1H-isoindol-1-yl}-1H-benzimidazol-2-yl)carbamate], the values for the negative-log IC50 (pIC50) at B-Raf (read-out: bRaf IC50) and on c-Raf (read-out: cRaf-1 IC50) were 5.00 to 6.00 and 6.00 to 7.00, respectively.
Regarding `Cc1ccc(Cl)cc1N1C(=O)c2ccccc2C1(O)c1ccc2nc(Nc3cnccn3)[nH]c2c1` (stereo not drawn) [Entry 389, 2-(5-chloro-2-methylphenyl)-3-hydroxy-3-[2-(pyrazin-2-ylamino)-1H-benzimidazol-6-yl]-2,3-dihydro-1H-isoindol-1-one], the pIC50 at B-Raf (setting [1]) and on c-Raf (setting [2]) was > 7.00 each time.
With `COC(=O)Nc1nc2cc(C3(O)c4ccccc4C(=O)N3c3cccc(NC(C)=O)c3)ccc2[nH]1` (stereo not drawn) [Entry 231, methyl (5-{2-[3-(acetylamino)phenyl]-1-hydroxy-3-oxo-2,3-dihydro-1H-isoindol-1-yl}-1H-benzimidazol-2-yl)carbamate], the pIC50 at B-Raf (read-out: bRaf IC50) and at c-Raf (read-out: cRaf-1 IC50) was > 7.00 throughout.
Turning to `O=C(Nc1nc2cc(C3(O)c4ccccc4C(=O)N3c3cccc(Cl)c3F)ccc2[nH]1)OCCN1CCCCC1` (stereo not drawn) [Entry 293, 2-piperidin-1-ylethyl {5-[2-(3-chloro-2-fluorophenyl)-1-hydroxy-3-oxo-2,3-dihydro-1H-isoindol-1-yl]-1H-benzimidazol-2-yl}carbamate], the pIC50 at B-Raf (setting [1]) and at c-Raf (setting [2]) was > 7.00 throughout.
`COCC(C)(C)COC(=O)Nc1nc2cc(C3(O)c4ccccc4C(=O)N3Cc3ccccc3)ccc2[nH]1` (stereo not drawn) [Entry 247, 2,2-dimethyl-3-(methyloxy)propyl {5-[1-hydroxy-3-oxo-2-(phenylmethyl)-2,3-dihydro-1H-isoindol-1-yl]-1H-benzimidazol-2-yl}carbamate]: the negative-log IC50 (pIC50) on B-Raf (read-out: bRaf IC50) and at c-Raf (read-out: cRaf-1 IC50) was 6.00 to 7.00 throughout.
Turning to `COC(C)CCOC(=O)Nc1nc2cc(C3(O)c4ccccc4C(=O)N3Cc3ccccc3)ccc2[nH]1` (stereo not drawn) [Entry 103, 3-(methyloxy)butyl {5-[1-hydroxy-3-oxo-2-(phenylmethyl)-2,3-dihydro-1H-isoindol-1-yl]-1H-benzimidazol-2-yl}carbamate], the pIC50 on B-Raf (read-out: bRaf IC50) and on c-Raf (read-out: cRaf-1 IC50) was > 7.00 in each case.
With `COC(=O)Nc1nc2cc(C3(O)c4ccccc4C(=O)N3c3cccc(-c4ccccc4)c3)ccc2[nH]1` (stereo not drawn) [Entry 222, methyl [5-(2-biphenyl-3-yl-1-hydroxy-3-oxo-2,3-dihydro-1H-isoindol-1-yl)-1H-benzimidazol-2-yl]carbamate], the pIC50 on B-Raf (read-out: bRaf IC50) and on c-Raf (read-out: cRaf-1 IC50) was 5.00 to 6.00 each time.
Take `COC(=O)Nc1nc2cc(C3(O)c4ccccc4C(=O)N3c3cc(Br)ccc3F)ccc2[nH]1` (stereo not drawn) [Entry 230, methyl {5-[2-(5-bromo-2-fluorophenyl)-1-hydroxy-3-oxo-2,3-dihydro-1H-isoindol-1-yl]-1H-benzimidazol-2-yl}carbamate]: the negative-log IC50 (pIC50) at B-Raf (read-out: bRaf IC50) and on c-Raf (read-out: cRaf-1 IC50) was > 7.00 in each case.
As to `COC(=O)Nc1nc2cc(C3(O)c4ccccc4C(=O)N3C(C)c3cccc(F)c3)ccc2[nH]1` (stereo not drawn) [Entry 166, methyl (5-{2-[1-(3-fluorophenyl)ethyl]-1-hydroxy-3-oxo-2,3-dihydro-1H-isoindol-1-yl}-1H-benzimidazol-2-yl)carbamate], the negative logarithm of the IC50 (pIC50) on B-Raf (read-out: bRaf IC50) is > 7.00; at c-Raf (read-out: cRaf-1 IC50), 6.00 to 7.00.
On to `COC(=O)Nc1nc2cc(C(=O)c3ccccc3NC(=O)OCc3ccccc3)ccc2[nH]1` [Entry 270, methyl (5-{[2-({[(phenylmethyl)oxy]carbonyl}amino)pheny]carbonyl}-1H-benzimidazol-2-yl)carbamate], for which the negative-log IC50 (pIC50) on B-Raf (setting [1]) and at c-Raf (setting [2]) was 5.00 to 6.00 each time.
`O=C(Nc1nc2ccc(C3(O)c4ccccc4C(=O)N3c3cccc(Cl)c3F)cc2[nH]1)OC1CCC1` (stereo not drawn) [Entry 330, cyclobutyl {6-[2-(3-chloro-2-fluorophenyl)-1-hydroxy-3-oxo-2,3-dihydro-1H-isoindol-1-yl]-1H-benzimidazol-2-yl}carbamate]: the pIC50 on B-Raf (setting [1]) and at c-Raf (setting [2]) was > 7.00 throughout.
As for `COc1cccc(N2C(=O)c3ccccc3C2(O)c2ccc3c(c2)NC(=O)CO3)c1` (stereo not drawn) [Entry 43, 6-{1-hydroxy-2-[3-(methyloxy)phenyl]-3-oxo-2,3-dihydro-1H-isoindol-1-yl}-2H-1,4-benzoxazin-3(4H)-one], the negative-log IC50 (pIC50) on B-Raf (read-out: bRaf IC50) and at c-Raf (read-out: cRaf-1 IC50) was 6.00 to 7.00 throughout.
`COC(=O)Nc1nc2cc(C3(O)c4ccccc4C(=O)N3c3cccc(N(C)C4CCCCC4)c3)ccc2[nH]1` (stereo not drawn) [Entry 311, methyl [5-(2-{3-[cyclohexyl(methyl)amino]phenyl}-1-hydroxy-3-oxo-2,3-dihydro-1H-isoindol-1-yl)-1H-benzimidazol-2-yl]carbamate]: the pIC50 on B-Raf (setting [1]) and at c-Raf (setting [2]) was > 7.00 throughout.
With `CCC(=O)Nc1nc2cc(C3(O)c4ccccc4C(=O)N3Cc3ccccc3)ccc2[nH]1` (stereo not drawn) [Entry 176, N-{5-[1-hydroxy-3-oxo-2-(phenylmethyl)-2,3-dihydro-1H-isoindol-1-yl]-1H-benzimidazol-2-yl}propanamide], the pIC50 at B-Raf (read-out: bRaf IC50) and at c-Raf (read-out: cRaf-1 IC50) was > 7.00 in each case.
For the compound `COC(=O)Nc1nc2cc(C3(O)c4ccccc4C(=O)N3c3cc(F)cc(Br)c3F)ccc2[nH]1` (stereo not drawn) [Entry 307, methyl {5-[2-(3-bromo-2,5-difluorophenyl)-1-hydroxy-3-oxo-2,3-dihydro-1H-isoindol-1-yl]-1H-benzimidazol-2-yl}carbamate], the pIC50 on B-Raf (setting [1]) and on c-Raf (setting [2]) was > 7.00 throughout.
For the compound `CN1CCN(CCCOC(=O)Nc2nc3ccc(C4(O)c5ccccc5C(=O)N4c4ccc(F)cc4)cc3[nH]2)CC1` (stereo not drawn) [Entry 280, 3-(4-methylpiperazin-1-yl)propyl {6-[2-(4-fluorophenyl)-1-hydroxy-3-oxo-2,3-dihydro-1H-isoindol-1-yl]-1H-benzimidazol-2-yl}carbamate], the negative logarithm of the IC50 (pIC50) at B-Raf (setting [1]) and on c-Raf (setting [2]) was > 7.00 each time.
Consider `COC(=O)Nc1nc2cc(C3(O)c4ccccc4C(=O)N3c3cccc(S(C)(=O)=O)c3)ccc2[nH]1` (stereo not drawn) [Entry 219, methyl (5-{1-hydroxy-2-[3-(methylsulfonyl)phenyl]-3-oxo-2,3-dihydro-1H-isoindol-1-yl}-1H-benzimidazol-2-yl)carbamate], for which the pIC50 on B-Raf (read-out: bRaf IC50) and at c-Raf (read-out: cRaf-1 IC50) was 6.00 to 7.00 throughout.
On to `O=C(CCCN1CCCCC1)Nc1nc2cc(C3(O)c4ccccc4C(=O)N3Cc3ccccc3)ccc2[nH]1` (stereo not drawn) [Entry 263, N-{5-[1-hydroxy-3-oxo-2-(phenylmethyl)-2,3-dihydro-1H-isoindol-1-yl]-1H-benzimidazol-2-yl}-4-piperidin-1-ylbutanamide], for which the pIC50 on B-Raf (read-out: bRaf IC50) and on c-Raf (read-out: cRaf-1 IC50) was > 7.00 each time.
As to `COC(=O)Nc1nc2cc(C3(O)c4ccccc4C(=O)N3c3cc(Cl)c(F)c(Cl)c3)ccc2[nH]1` (stereo not drawn) [Entry 246, methyl {5-[2-(3,5-dichloro-4-fluorophenyl)-1-hydroxy-3-oxo-2,3-dihydro-1H-isoindol-1-yl]-1H-benzimidazol-2-yl}carbamate], the values for the pIC50 at B-Raf (read-out: bRaf IC50) and at c-Raf (read-out: cRaf-1 IC50) were 5.00 to 6.00 and 6.00 to 7.00, respectively.
In the case of `Nc1ccccc1N1C(=O)c2ccccc2C1(O)c1ccc2c(c1)NC(=O)CO2` (stereo not drawn) [Entry 47, 6-[2-(2-aminophenyl)-1-hydroxy-3-oxo-2,3-dihydro-1H-isoindol-1-yl]-2H-1,4-benzoxazin-3(4H)-one], the pIC50 on B-Raf (read-out: bRaf IC50) and at c-Raf (read-out: cRaf-1 IC50) was 6.00 to 7.00 in each case.
`CCN(CC)CCOC(=O)Nc1nc2cc(C3(O)c4ccccc4C(=O)N3c3cccc(Cl)c3F)ccc2[nH]1` (stereo not drawn) [Entry 292, 2-(diethylamino)ethyl {5-[2-(3-chloro-2-fluorophenyl)-1-hydroxy-3-oxo-2,3-dihydro-1H-isoindol-1-yl]-1H-benzimidazol-2-yl}carbamate]: the pIC50 on B-Raf (setting [1]) and at c-Raf (setting [2]) was > 7.00 each time.
Consider `O=C1c2ccccc2C(O)(c2ccc3[nH]c(Nc4ccc(Cl)nn4)nc3c2)N1c1cccc(Cl)c1F` (stereo not drawn) [Entry 378, 2-(3-chloro-2-fluorophenyl)-3-{2-[(6-chloropyridazin-3-yl)amino]-1H-benzimidazol-5-yl}-3-hydroxy-2,3-dihydro-1H-isoindol-1-one], for which the pIC50 at B-Raf (setting [1]) and on c-Raf (setting [2]) was 6.00 to 7.00 in each case.
For `CC1(C)OC[C@@H](COC(=O)Nc2nc3cc(C4(O)c5ccccc5C(=O)N4Cc4ccccc4)ccc3[nH]2)O1` (stereo partly drawn) [Entry 229, [(4S)-2,2-dimethyl-1,3-dioxolan-4-yl]methyl {5-[1-hydroxy-3-oxo-2-(phenylmethyl)-2,3-dihydro-1H-isoindol-1-yl]-1H-benzimidazol-2-yl}carbamate], the pIC50 on B-Raf (read-out: bRaf IC50) and at c-Raf (read-out: cRaf-1 IC50) was > 7.00 each time.
With `COC(=O)Nc1nc2ccc(C(=O)c3ccccc3C(=O)Nc3cccc(Br)c3)cc2[nH]1` [Entry 394, methyl {6-[(2-{[(3-bromophenyl)amino]carbonyl}phenyl)carbonyl]-1H-benzimidazol-2-yl}carbamate], the pIC50 on B-Raf (setting [1]) and at c-Raf (setting [2]) was > 7.00 in each case.
As to `COC(=O)Nc1nc2cc(C3(O)c4ccccc4C(=O)N3c3ccc(C)cc3)ccc2[nH]1` (stereo not drawn) [Entry 146, methyl {5-[1-hydroxy-2-(4-methylphenyl)-3-oxo-2,3-dihydro-1H-isoindol-1-yl]-1H-benzimidazol-2-yl}carbamate], the negative logarithm of the IC50 (pIC50) at B-Raf (read-out: bRaf IC50) and on c-Raf (read-out: cRaf-1 IC50) was 6.00 to 7.00 each time.
With `COC(=O)Nc1nc2cc(C3(O)c4ccccc4C(=O)N3c3cc(Cl)c(Cl)cc3F)ccc2[nH]1` (stereo not drawn) [Entry 250, methyl {5-[2-(4,5-dichloro-2-fluorophenyl)-1-hydroxy-3-oxo-2,3-dihydro-1H-isoindol-1-yl]-1H-benzimidazol-2-yl}carbamate], the negative-log IC50 (pIC50) at B-Raf (read-out: bRaf IC50) and on c-Raf (read-out: cRaf-1 IC50) was > 7.00 in each case.
As to `COC(=O)Nc1nc2cc(C3(O)c4ccccc4C(=O)N3c3ccccc3OC)ccc2[nH]1` (stereo not drawn) [Entry 145, methyl (5-{1-hydroxy-2-[2-(methyloxy)phenyl]-3-oxo-2,3-dihydro-1H-isoindol-1-yl}-1H-benzimidazol-2-yl)carbamate], the pIC50 at B-Raf (read-out: bRaf IC50) and at c-Raf (read-out: cRaf-1 IC50) was > 7.00 in each case.

These data come from patent US7846959B2, “Raf modulators and methods of use” (Exelixis, Inc., priority 2004, dated 2010).
